A word on the IC50: it is the concentration that inhibits the measured activity by half.

In the test the target is T1, SARM1 (50-724) (Homo sapiens, UniProt Q6SZW1).
T1 construct: Purified SARM1 (50-724) with a final concentration of 2 nM was pre-incubated with a test compound
T1 sequence (Q6SZW1 50-724): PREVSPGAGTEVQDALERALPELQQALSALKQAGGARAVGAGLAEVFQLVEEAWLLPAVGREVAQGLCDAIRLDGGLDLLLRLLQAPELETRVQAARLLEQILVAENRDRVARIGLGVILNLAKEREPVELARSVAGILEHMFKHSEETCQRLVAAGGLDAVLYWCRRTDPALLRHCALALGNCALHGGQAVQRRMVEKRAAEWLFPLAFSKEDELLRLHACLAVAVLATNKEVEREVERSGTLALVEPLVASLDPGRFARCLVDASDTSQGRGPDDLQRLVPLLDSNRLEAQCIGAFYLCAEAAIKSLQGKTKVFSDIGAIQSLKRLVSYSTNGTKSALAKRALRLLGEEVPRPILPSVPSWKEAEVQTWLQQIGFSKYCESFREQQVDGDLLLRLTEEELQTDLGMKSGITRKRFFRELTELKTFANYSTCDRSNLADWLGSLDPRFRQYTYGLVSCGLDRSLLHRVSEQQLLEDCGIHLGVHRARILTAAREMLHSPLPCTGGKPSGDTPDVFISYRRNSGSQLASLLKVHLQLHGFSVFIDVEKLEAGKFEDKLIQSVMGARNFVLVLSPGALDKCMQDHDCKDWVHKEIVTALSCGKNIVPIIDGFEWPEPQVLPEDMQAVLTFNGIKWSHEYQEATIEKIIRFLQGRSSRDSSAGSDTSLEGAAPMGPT
In words: SARM1 (50-724) enzymatic assay (LC-MS/MS). The class given is biochemical. The note with it: Purified SARM1 (50-724) 2 nM, NMN as activator, NAD+ as substrate, 1 h at room temperature, read-out: IC50 (SARM1 inhibitory activity). The method, boiled down:
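Reaction buffer was Dulbecco's PBS. Compound and 2 nM human SARM1 (50-724) were pre-incubated 15 min at room temperature, then […] NAD^+ and 200 µM NMN activator were added for 1 h at room temperature. Acetonitrile (70%) stop, LC-MS/MS read-out, IC50 values.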
In the case of `Fc1cccc(-n2cnnc2-c2nc3cc(C(F)(F)F)ccc3[nH]2)c1F` [Example 84, 2-(4-(2,3-difluorophenyl)-4H-1,2,4-triazol-3-yl)-5-(trifluoromethyl)-1H-benzo[d]imidazole], the IC50 is ≤ 100 nM.
Take `Fc1ccc(-n2cnnc2-c2nc3cc(C(F)(F)F)ccc3[nH]2)c(Cl)c1Cl` [Example 85]: the IC50 was ≤ 100 nM.
As to `Cn1cc(-c2ccccc2)c(-c2nc3cc(C(F)(F)F)ccc3[nH]2)cc1=O` [Example 86], the 50% inhibitory concentration (IC50) is > 1000 nM.
Turning to `Cc1nnc(-c2nc3cc(C(F)(F)F)ccc3[nH]2)n1-c1cccc(Cl)c1Cl` [Example 87, 2-(4-(2,3-dichlorophenyl)-5-methyl-4H-1,2,4-triazol-3-yl)-5-(trifluoromethyl)-1H-benzo[d]imidazole], the IC50 is ≤ 100 nM.
Turning to `CS(=O)(=O)Cc1nnc(-c2nc3cc(C(F)(F)F)ccc3[nH]2)n1-c1cccc(Cl)c1Cl` [Example 88, 2-(4-(2,3-dichlorophenyl)-5-((methylsulfonyl)methyl)-4H-1,2,4-triazol-3-yl)-5-(trifluoromethyl)-1H-benzo[d]imidazole], the IC50 was ≤ 100 nM.
With `NC(=O)c1ncc(-c2nc3cc(C(F)(F)F)ccc3[nH]2)n1-c1cccc(Cl)c1Cl` [Example 89, 1-(2,3-dichlorophenyl)-5-(5-(trifluoromethyl)-1H-benzo[d]imidazol-2-yl)-1H-imidazole-2-carboxamide], the IC50 is 100 to 500 nM.
Take `OCc1nnc(-c2nc3cc(C(F)(F)F)ccc3[nH]2)n1-c1cccc(Cl)c1Cl` [Example 90]: the IC50 was ≤ 100 nM.
As for `N#Cc1c(Cl)cccc1-n1cnnc1-c1nc2cc(C(F)(F)F)ccc2[nH]1` [Example 91], the IC50 was > 1000 nM.
Consider `FC(F)(F)c1ccc2[nH]c(-c3cnsc3-c3cccc(Cl)c3Cl)nc2c1` [Example 92], for which the IC50 fell in the range of 100 to 500 nM.
For `Cc1ccc2[nH]c(-c3nncn3-c3cccc(Cl)c3Cl)nc2c1C` [Example 93, 2-(4-(2,3-dichlorophenyl)-4H-1,2,4-triazol-3-yl)-4,5-dimethyl-1H-benzo[d]imidazole], the IC50 is ≤ 100 nM.
`C[S+]([O-])c1c(Br)ccc2[nH]c(-c3nncn3-c3cccc(Cl)c3Cl)nc12` (stereo not shown) [Example 94, 5-bromo-2-(4-(2,3-dichlorophenyl)-4H-1,2,4-triazol-3-yl)-4-(methylsulfinyl)-1H-benzo[d]imidazole]: the IC50 fell in the range of 500 to 1000 nM.
As to `CS(=O)(=O)c1c(Br)ccc2[nH]c(-c3nncn3-c3cccc(Cl)c3Cl)nc12` [Example 95, 5-bromo-2-(4-(2,3-dichlorophenyl)-4H-1,2,4-triazol-3-yl)-4-(methylsulfonyl)-1H-benzo[d]imidazole], the IC50 is > 1000 nM.
Turning to `CC(C)(O)c1ccc2[nH]c(-c3nncn3-c3cccc(Cl)c3Cl)nc2c1` [Example 96, 2-(2-(4-(2,3-dichlorophenyl)-4H-1,2,4-triazol-3-yl)-1H-benzo[d]imidazol-5-yl)propan-2-ol], the IC50 was ≤ 100 nM.
On to `Cn1cc(-c2ccc(Cl)cc2)c(-c2nc3cc(C(F)(F)F)ccc3[nH]2)cc1=O` [Example 98], for which the IC50 is > 1000 nM.
As to `FC(F)(F)c1ccc2[nH]c(-c3nnnn3-c3cccc(Cl)c3Cl)nc2c1` [Example 99], the IC50 was in the range of 100 to 500 nM.
`Clc1cccc(-n2cnnc2-c2nc3cc(-c4cscn4)ccc3[nH]2)c1Cl` [Example 100, 4-(2-(4-(2,3-dichlorophenyl)-4H-1,2,4-triazol-3-yl)-1H-benzo[d]imidazol-5-yl)thiazole]: the IC50 is ≤ 100 nM.
As to `COC(=O)C(C)c1ccc2[nH]c(-c3nncn3-c3cccc(Cl)c3Cl)nc2c1` (stereo not shown) [Example 101, methyl 2-(2-(4-(2,3-dichlorophenyl)-4H-1,2,4-triazol-3-yl)-1H-benzo[d]imidazol-5-yl)propanoate], the IC50 is ≤ 100 nM.
The result for `COC(=O)C(C)(C)c1ccc2[nH]c(-c3nncn3-c3cccc(Cl)c3Cl)nc2c1` [Example 102] reads ≤ 100 nM.
Take `CC(C)(CO)c1ccc2[nH]c(-c3nncn3-c3cccc(Cl)c3Cl)nc2c1` [Example 103]: the IC50 was ≤ 100 nM.
Next, `CC(CO)c1ccc2[nH]c(-c3nncn3-c3cccc(Cl)c3Cl)nc2c1` (stereo not shown) [Example 104, 2-(2-(4-(2,3-dichlorophenyl)-4H-1,2,4-triazol-3-yl)-1H-benzo[d]imidazol-5-yl)propan-1-ol]: ≤ 100 nM; `FC(F)(F)c1ccc2[nH]c(-c3nncn3-c3ccccc3Cl)nc2c1` [Example 105]: ≤ 100 nM; `FC(F)(F)c1ccc2[nH]c(-c3nncn3-c3nsc(Cl)c3Cl)nc2c1` [Example 106]: ≤ 100 nM.
`CC(C)(C(N)=O)c1ccc2[nH]c(-c3nncn3-c3cccc(Cl)c3Cl)nc2c1` [Example 107]: the IC50 is ≤ 100 nM.
As to `FC(F)(F)c1ccc2[nH]c(-c3nnc(S)n3-c3cccc(Cl)c3Cl)nc2c1` [Example 108, 4-(2,3-dichlorophenyl)-5-(5-(trifluoromethyl)-1H-benzo[d]imidazol-2-yl)-4H-1,2,4-triazole-3-thiol], the 50% inhibitory concentration (IC50) is 100 to 500 nM.
Consider `COC(C)(C)c1ccc2[nH]c(-c3nncn3-c3cccc(Cl)c3Cl)nc2c1` [Example 110], for which the IC50 is ≤ 100 nM.
Next, `OC1(c2ccc3[nH]c(-c4nncn4-c4cccc(Cl)c4Cl)nc3c2)CCC1` [Example 111]: ≤ 100 nM; `CC(C)(C#N)c1ccc2[nH]c(-c3nncn3-c3cccc(Cl)c3Cl)nc2c1` [Example 112]: ≤ 100 nM; `O=C(O)C1(c2ccc3[nH]c(-c4nncn4-c4cccc(Cl)c4Cl)nc3c2)CCC1` [Example 113]: ≤ 100 nM.
`COc1ccc(Cl)c(-n2cnnc2-c2nc3cc(C(F)(F)F)ccc3[nH]2)n1` [Example 114]: the 50% inhibitory concentration (IC50) was ≤ 100 nM.
In the case of `Oc1ccc(Cl)c(-n2cnnc2-c2nc3cc(C(F)(F)F)ccc3[nH]2)n1` [Example 115], the IC50 was ≤ 100 nM.
On to `FC(F)(F)c1ccc2[nH]c(-c3nnc(OC4COC4)n3-c3cccc(Cl)c3Cl)nc2c1` [Example 117, 2-(4-(2,3-dichlorophenyl)-5-(oxetan-3-yloxy)-4H-1,2,4-triazol-3-yl)-5-(trifluoromethyl)-1H-benzo[d]imidazole], for which the IC50 is 100 to 500 nM.
As to `Cc1nsc(Cl)c1-n1cnnc1-c1nc2cc(C(F)(F)F)ccc2[nH]1` [Example 118], the IC50 was ≤ 100 nM.
Regarding `FC(F)(F)c1ccc2[nH]c(-c3nncn3-c3cccc(Cl)c3Br)nc2c1` [Example 119], the 50% inhibitory concentration (IC50) was ≤ 100 nM.
Turning to `Fc1ccc(-n2cnnc2-c2nc3cc(C(F)(F)F)ccc3[nH]2)c(Cl)c1F` [Example 120], the IC50 was ≤ 100 nM.
As for `OCCc1nnc(-c2nc3cc(C(F)(F)F)ccc3[nH]2)n1-c1cccc(Cl)c1Cl` [Example 121, 2-(4-(2,3-Dichlorophenyl)-5-(5-(trifluoromethyl)-1H-benzo[d]imidazol-2-yl)-4H-1,2,4-triazol-3-yl)ethan-1-ol], the IC50 was ≤ 100 nM.
Next, `NC(=O)Cc1nnc(-c2nc3cc(C(F)(F)F)ccc3[nH]2)n1-c1cccc(Cl)c1Cl` [Example 122, 2-[4-(2,3-Dichlorophenyl)-5-[5-(trifluoromethyl)-1H-benzimidazol-2-yl]-1,2,4-triazol-3-yl]acetamide]: ≤ 100 nM; `Cc1cncc(-n2cnnc2-c2nc3cc(C(F)(F)F)ccc3[nH]2)c1Cl` [Example 123]: ≤ 100 nM; `FC(F)(F)c1ccc2[nH]c(-c3nnc(COC4COC4)n3-c3cccc(Cl)c3Cl)nc2c1` [Example 124]: ≤ 100 nM.
Consider `FC(F)(F)c1ccc2[nH]c(-c3nnc(CN4CCC4)n3-c3cccc(Cl)c3Cl)nc2c1` [Example 125], for which the IC50 was ≤ 100 nM.
The result for `OCCOCc1nnc(-c2nc3cc(C(F)(F)F)ccc3[nH]2)n1-c1cccc(Cl)c1Cl` [Example 126] reads ≤ 100 nM.
As to `OC1CC(OCc2nnc(-c3nc4cc(C(F)(F)F)ccc4[nH]3)n2-c2cccc(Cl)c2Cl)C1` (stereo not shown) [Example 127], the IC50 was ≤ 100 nM.
With `Clc1cccc(-n2cnnc2-c2nc3cc(C4CCOC4)ccc3[nH]2)c1Cl` (stereo not shown) [Example 128, 2-(4-(2,3-dichlorophenyl)-4H-1,2,4-triazol-3-yl)-5-(tetrahydrofuran-3-yl)-1H-benzo[d]imidazole], the IC50 was ≤ 100 nM.
Turning to `CCOC(=O)C1(c2ccc3[nH]c(-c4nncn4-c4cccc(Cl)c4Cl)nc3c2)CCC1` [Example 129], the IC50 was ≤ 100 nM.
As to `OCC1(c2ccc3[nH]c(-c4nncn4-c4cccc(Cl)c4Cl)nc3c2)CCC1` [Example 130], the IC50 was ≤ 100 nM.
The result for `FC(F)(F)Oc1ccc2[nH]c(-c3nncn3-c3cccc(Cl)c3Cl)nc2c1` [Example 132, 2-(4-(2,3-dichlorophenyl)-4H-1,2,4-triazol-3-yl)-5-(trifluoromethoxy)-1H-benzo[d]imidazole] reads ≤ 100 nM.
`OC1(c2ccc3[nH]c(-c4nncn4-c4cccc(Cl)c4Cl)nc3c2)CC1` [Example 133]: the IC50 is ≤ 100 nM.

The record behind these values is patent US20260258064A1 (SIRONAX LTD., priority 2023, published 2026).
